The values below come from patent US20230355605A1, “DRUG FOR ENHANCING FIBRINOLYTIC SYSTEM, AND USE THEREFOR” (priority 2020, published 2023).

The format of series [1] is physicochemical. On the procedure: The present compound (yellowish white powder) was prepared in the following shipping packaging form and then subjected to an accelerated stability study (40° C., 75% RH, 6 months).
Inner package: A double polyethylene bag (100 × 200 mm) was filled with the present compound and sealed with a zip tie. Outer package: The double polyethylene bag filled with the present compound was placed in a fiber drum, and the fiber drum was sealed.
The present compound was stored in the above packaging form under the conditions of 40° C.12° C. and 75% RH15% RH for 6 months. At points after 1 month, 3 months, and 6 months, appearance observation, an identification test (ultraviolet spectrum, infrared absorption spectrum, flame reaction), water content analysis (water absorption), analysis of the content of the present compound, and a purity test (impurity profile) were performed to evaluate the stability of the present compound.

For series [2] the following is noted: human, in vivo. On the procedure:
A placebo-controlled repeated oral dose study was performed to examine the safety, pharmacokinetics, and pharmacodynamics of the present compound during repeated oral dose administration in healthy Japanese adult males (subjects).
The oral dosages were 60 mg (step 1) and 120 mg (step 2) per day, and the number of subjects per step was 9 (6 subjects in the present compound group and 3 subjects in the placebo group). The transition from one step to the next was made after confirming safety. The present compound or the placebo was orally administered once daily after breakfast for 7 days.
After administration of the present compound and the placebo, the following items were evaluated in each subject. Safety: vital signs (axillary temperature, blood pressure while seated, and pulse rate while seated), 12-lead electrocardiogram, laboratory tests (hematological test, blood biochemical test, blood coagulation test, urinalysis, and fecal test), and adverse events • Pharmacokinetics: plasma concentration of the unchanged drug and metabolite concentration • Pharmacological activities: PAI-1 activity and t-PA activity

The subject of series [3] is rat model of ferric chloride-induced carotid thrombosis. Description: Rat model of ferric chloride-induced carotid thrombosis. It counts as in vivo. To be noted: 0.3, 1, 3 mg/kg oral. On the procedure:
The evaluation of the antithrombotic effect was performed according to the method described in Test Example 3 of WO2010/113022. Specifically, two hours before the procedure, the present compound suspended in a 0.5% sodium carboxymethylcellulose (CMC-Na) aqueous solution was orally administered to test groups of rats at dosages of 0.3, 1, and 3 mg/kg. […] Under anesthesia, ferric chloride was applied to a carotid artery of each rat to induce thrombus formation by damaging the blood vessel, and the time from thrombus formation to occlusion of the carotid artery (occlusion time) up to 30 minutes was measured with a Doppler blood flowmeter. Occlusion of the blood flow was defined as a state in which the average blood flow indicated zero on the chart.
The bleeding effect was also evaluated by measuring the bleeding time. The bleeding time was measured in the same rats as above by sticking the tail of each rat with an animal lancet 20 minutes after the ferric chloride treatment and then observing the presence or absence of blood adhered to filter paper every 30 seconds. The time until bleeding stopped (bleeding time) was used as an index of bleeding.

For another series, the target named is T1, PAI-1 (Homo sapiens, UniProt P05121).
T1 construct: from tissue; host or cells: plasma of human subjects (phase I study)
T1 sequence (P05121 24-402): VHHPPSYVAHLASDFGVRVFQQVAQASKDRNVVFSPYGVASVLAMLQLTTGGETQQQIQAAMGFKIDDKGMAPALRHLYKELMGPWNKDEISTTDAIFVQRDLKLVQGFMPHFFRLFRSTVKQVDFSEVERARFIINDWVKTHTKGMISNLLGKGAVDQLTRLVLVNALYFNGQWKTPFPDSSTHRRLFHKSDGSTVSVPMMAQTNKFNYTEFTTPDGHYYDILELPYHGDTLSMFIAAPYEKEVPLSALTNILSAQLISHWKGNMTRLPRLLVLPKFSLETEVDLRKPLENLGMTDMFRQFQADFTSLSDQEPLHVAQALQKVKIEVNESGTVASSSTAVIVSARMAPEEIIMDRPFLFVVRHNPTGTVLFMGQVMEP
In words: PAI-1 activity in blood, phase I repeated oral dose study. It counts as in vivo. On the procedure:
The pharmacological activities (PAI-1 activity and t-PA activity) were evaluated using blood collected from the subjects before and after administration of the present compound or the placebo as test samples. Blood was collected before administration and 2, 4, and 8 hours after administration on the first day of the experiment (day 1) and day 7 after the start of the experiment, and on the other days, blood was collected once a day before administration (only before administration on days 2 to 6, day 8, and day 11 after the start of administration).
After collecting blood samples from the subjects, the samples were treated with 3.2% citric acid salt and centrifuged at 4° C., 1,800 g for 10 minutes to obtain plasma. The collected plasma was used for measurement of PAI-1 activity and stored frozen at -80° C. or less until measurement.
The PAI-1 activity was measured using a human PAI-1 activity assay kit (produced by Molecular Innovations Inc.). In this system, a plasma sample collected from a subject is placed on a plate coated with urokinase plasminogen activator (uPA), PAI-1 in the sample is reacted with uPA, and then active PAI-1 bound to uPA is measured as PAI-1 activity using an antigen-antibody reaction with an anti-PAI-1 antibody by measuring the absorbance at a wavelength of 450 nm with a plate reader.

The target in the next series is human-derived PAI-1 (Homo sapiens, UniProt P05121). Description: Human plasma clot fibrinolysis test (PAI-1 inhibitory effect). It counts as biochemical. As to conditions: human plasma clot with t-PA and human-derived PAI-1. On the procedure:
A human plasma clot fibrinolysis test was performed to evaluate the PAI-1 inhibitory effect of the present compound.
Specifically, human-derived PAI-1 and the present compound were added to a reaction mixture containing t-PA, which dissolves blood clots caused by addition of thrombin to normal human pooled plasma, and the inhibition of the effect of t-PA by PAI-1 (PAI-1 effect) and the removal of the PAI-1 effect by the present compound (PAI-1 inhibition) (fibrinolysis enhancement) were evaluated.

Series [4] relates to chronic-phase chronic myeloid leukemia (CML) patients. In words: Phase II study in combination with TKI in chronic-phase CML patients (4 weeks). The format is in vivo, human. From the text:
The present compound and a tyrosine kinase inhibitor (hereinafter referred to as “TKI”) were used in combination and repeatedly administered orally to patients with chronic-phase chronic myeloid leukemia (CML patients) to evaluate the safety of the present compound and the effectiveness of the present compound against CML.
Oral administration of the TKI, which is a drug used in combination, was continued for a total of 12 weeks, including the 8-week observation period. The safety analysis set (SAS) and the full analysis set (FAS) each consisted of the 21 patients, and the per protocol set (PPS) consisted of 18 patients.

The test system of the next series is CHL/IU cells. Description: Chromosomal abnormality study. It counts as cell-based, Chinese hamster. To be noted: with and without S9 mix. On the procedure: A study on the clastogenic property of the present compound was performed in the presence of a drug metabolism-activating enzyme (S9 mix) (hereinafter referred to as a “metabolic activation method”) and in the absence of a drug metabolism-activating enzyme (S9 mix) (hereinafter referred to as a “direct method”) using mammalian cultured cells (Chinese hamster cultured cells (CHL/IU cells)).

A value given as a limit tells only on which side of the number the result lay.

Chain of human-derived PAI-1 (P05121 24-402): as above

On to `O=C(Nc1ccc(Cl)cc1C(=O)[O-])c1cccc(-c2cccc3cccnc23)c1.[Na+]` [present compound, sodium 5-chloro-2-({ [3-(quinolin-8-yl)phenyl]carbonyl}amino)benzoate], for which the “period stable in the accelerated stability study” value in series [1] (6 months) is “at least 6 months”. In series [1] (40° C., 75% RH, after 1, 3 and 6 months, shipping packaging), the “change from the state before storage (appearance, identification, water content, content, purity)” value was “no change”. Also, in series [2], the “AUC on day 7 compared with day 1” value is reported as “increased”; the “Tmax, t½ 0-24h, and Cmax′” value is recorded as “not affected by repeated administration”. Further, in series [3] (2 hours before procedure), the occlusion time result is listed as “prolongs the occlusion time in a dose-dependent manner”. The “bleeding time vs vehicle group” value in series [3] (tail lancet 20 minutes after ferric chloride) is “no significant difference”. For the same compound, on PAI-1 (60 mg/day oral, days 1 and 7), the “PAI-1 activity in blood vs placebo” value is on record as “neither PAI-1 activity nor t-PA activity was different”. Also, the “time after administration of maximal decrease in PAI-1 activity” value at PAI-1 (120 mg/day oral) came to 8 h. Besides, the “PAI-1 activity in blood” value at PAI-1 (120 mg/day oral, days 1 and 7) is recorded as “decreased”. Besides, the “dosage at which PAI-1 is significantly inhibited and t-PA enhanced in humans” value at PAI-1 (oral) is reported as “at least 120 mg per day”. Also, the “concentration with PAI-1 inhibitory effect (fibrinolysis enhancement effect)” value on human-derived PAI-1 is at least 10 µM. Moreover, the “cumulative DMR achievement rate (MR 4.5, BCR-ABL^IS≤0.0032%)” value in series [4] (120 mg once daily 4 weeks in combination with TKI) was “increased”. Moreover, in series [4] (120 mg once daily 4 weeks with TKI, 21 patients (SAS)), the “adverse events causally related to the investigational drug” value is on record as “No adverse events”. In the series on CHL/IU cells, the clastogenic effect entry is on record as “no clastogenic effect”.
